What was measured:
[1] = test system: Viola arvensis, Bromus spp., Lolium spp., Agropyron repens and Urtica urens; settings: reported by Hoechst et al., 1991; cited from earlier work
Euphorbia heterophylla = experiment: Greenhouse post-emergence herbicidal efficacy on Euphorbia heterophylla; format: in vivo
Method: (§1) The expected efficacy of a combination of L-glufosinate ammonium and the other herbicides was calculated using the well-established Colby method. Any difference between the observed and “expected” efficacy could be attributed to synergy between the two compounds.
(§2) In the Colby method, the expected (or predicted) response of a combination of herbicides is calculated by taking the product of the observed response for each individual component of the combination when applied alone, divided by 100, and subtracting this value from the sum of the observed response for each component when applied alone. An unexpected enhancement in efficacy of the combination is then determined by comparing the observed response of the combination to the expected (or predicted) response as calculated from the observed response of each individual component alone. If the observed response of the combination is greater than the expected (or predicted) response, or stated conversely, if the difference between the observed and expected response is greater than zero, then the combination is said to be synergistic or unexpectedly effective (Colby, S. R., Weeds, 1967(15), p. 20-22). The Colby method requires only a single dose of each herbicide applied alone and the mixture of both doses. The formula used to calculate the expected efficacy (EE) which was compared with the observed efficacy (OE) to determine the efficacy of the present disclosure is explained hereinbelow:
(§3) The expected efficacy for a combination of two active ingredients is as follows:
(§4) The expected efficacy for a combination of three active ingredients is as follows:
(§5) [formula] • wherein, • A=Observed efficacy of active ingredient A at the same concentration as used in the mixture. • B=Observed efficacy of the active ingredient B at the same concentration as used in the mixture. • C=Observed efficacy of the active ingredient C at the same concentration as used in the mixture.
(§6) Greenhouse trials were conducted to evaluate the efficacy of the combination of L-glufosinate ammonium and metribuzin, L-glufosinate ammonium and metribuzin+sulfentrazone and L-glufosinate ammonium and metribuzin+oxyfluorfen—on weeds Borreria verticillate, Euphorbia heterophylla.
(§7) The soil used was sandy clay loam—sand: 68.0%; silt: 8.0%; clay: 24.0%.
(§8) All treatments were in 4 replications per treatment with a spray volume of 150 L/ha.
The percentage efficacy was calculated at 7, 14 and 21 DAA. The target weed was Euphorbia heterophylla, and the concentration of the herbicide and the results are recorded in Table 2.
The percentage efficacy was calculated at 14, 21 and 28 DAA. The target weed was Euphorbia heterophylla, and the concentration of the herbicides and the results are recorded in Table 4.
The percentage efficacy was calculated at 14 and 21 DAA. The target weed was Euphorbia heterophylla, and the concentration of the herbicides and the results are recorded in Table 6.

Borreria verticillata = experiment: Greenhouse post-emergence herbicidal efficacy on Borreria verticillata; format: in vivo; settings: 14 DAA
Method: as §1, §2, §3, §4, §5, §6, §7, §8
The percentage efficacy was calculated at 14 days after application (DAA). The target weed was Borreria verticillata, and the concentration of the herbicide and the results are recorded in Table 1.
The percentage efficacy was calculated at 14 DAA. The target weed was Borreria verticillata, and the concentration of the herbicides and the results are recorded in the Table 3.
The percentage efficacy was calculated at 14 DAA. The target weed was Borreria verticillata, and the concentration of the herbicides and the results are recorded in Table 5.

Question: Which “Control of weed species by glufosinate” value [1] does the source give for `CP(=O)(O)CCC(N)C(=O)O` (racemic) [glufosinate, DL-homoalanin-4-yl(methyl)phosphinic acid] here?
Answer: either not combated, or only weakly combated

Question: For `CP(=O)(O)CC[C@H](N)C(=O)O.N` [L-glufosinate ammonium, ammonium (2S)-2-amino-4-(methylphosphinato)butyric acid], which “Observed efficacy (%) of L-glufosinate ammonium (150 g a.i./ha)” value (“Observed efficacy (%) … (150 g a.i./ha)” below) (Euphorbia heterophylla; Table 2, 7 DAA) is on record?
Answer: 95%

Question: And the “Observed efficacy (%) … (150 g a.i./ha)” value (Euphorbia heterophylla; Table 2, 14 DAA)?
Answer: 85%

Question: And the “Observed efficacy (%) … (150 g a.i./ha)” value (Euphorbia heterophylla; Table 2, 21 DAA)?
Answer: 70%

Question: What about the “Observed efficacy (%) … (150 g a.i./ha)” value (Euphorbia heterophylla; Table 4, 14 DAA) of the same molecule?
Answer: 88%

Question: And the “Observed efficacy (%) … (150 g a.i./ha)” value (Euphorbia heterophylla; Table 4, 21 DAA)?
Answer: 85%

Question: And the “Observed efficacy (%) … (150 g a.i./ha)” value (Euphorbia heterophylla; Table 4, 28 DAA)?
Answer: 85%

Question: And the “Observed efficacy (%) … (150 g a.i./ha)” value (Euphorbia heterophylla; Table 6, 14 DAA)?
Answer: 85%

Question: And the “Observed efficacy (%) … (150 g a.i./ha)” value (Euphorbia heterophylla; Table 6, 21 DAA)?
Answer: 70%

Question: And the “Observed efficacy (%) … (150 g a.i./ha)” value (Borreria verticillata; Table 1)?
Answer: 80%

Question: And the “Observed efficacy (%) … (150 g a.i./ha)” value (Borreria verticillata; Table 3)?
Answer: 80%

Question: And the “Observed efficacy (%) … (150 g a.i./ha)” value (Borreria verticillata; Table 5)?
Answer: 80%

Question: Which “Observed efficacy (%) of metribuzin (252 g a.i./ha)” value (shortened to “Observed efficacy (%) of metribuzin”) (Euphorbia heterophylla; Table 2, 7 DAA) does the source give for `CSc1nnc(C(C)(C)C)c(=O)n1N` [Metribuzin] here?
Answer: 35%

Question: And the “Observed efficacy (%) of metribuzin” value (Euphorbia heterophylla; Table 2, 14 DAA)?
Answer: 25%

Question: And the “Observed efficacy (%) of metribuzin” value (Euphorbia heterophylla; Table 2, 21 DAA)?
Answer: 15%

Question: And the “Observed efficacy (%) of metribuzin” value (Euphorbia heterophylla; Table 4, 14 DAA)?
Answer: 30%

Question: What about the “Observed efficacy (%) of metribuzin” value (Euphorbia heterophylla; Table 4, 21 DAA) of the same molecule?
Answer: 20%

Question: What about the “Observed efficacy (%) of metribuzin” value (Euphorbia heterophylla; Table 4, 28 DAA) of the same molecule?
Answer: 10%

Question: What about the “Observed efficacy (%) of metribuzin” value (Euphorbia heterophylla; Table 6, 14 DAA) of the same molecule?
Answer: 85%

Question: What about the “Observed efficacy (%) of metribuzin” value (Euphorbia heterophylla; Table 6, 21 DAA) of the same molecule?
Answer: 85%

Question: And the “Observed efficacy (%) of metribuzin” value (Borreria verticillata; Table 1)?
Answer: 30%

Question: And the “Observed efficacy (%) of metribuzin” value (Borreria verticillata; Table 3)?
Answer: 30%

Question: What about the “Observed efficacy (%) of metribuzin” value (Borreria verticillata; Table 5) of the same molecule?
Answer: 55%

Question: Which “Observed efficacy (%) of oxyfluorfen (430 g a.i./ha)” value (“Observed efficacy (%) of oxyfluorfen” for short) (Euphorbia heterophylla; Table 4, 14 DAA) does the source give for `CCOc1cc(Oc2ccc(C(F)(F)F)cc2Cl)ccc1[N+](=O)[O-]` [Oxyfluorfen] here?
Answer: 65%

Question: What about the “Observed efficacy (%) of oxyfluorfen” value (Euphorbia heterophylla; Table 4, 21 DAA) of the same molecule?
Answer: 50%

Question: What about the “Observed efficacy (%) of oxyfluorfen” value (Euphorbia heterophylla; Table 4, 28 DAA) of the same molecule?
Answer: 40%

Question: What about the “Observed efficacy (%) of oxyfluorfen” value (Borreria verticillata; Table 3, 430 g a.i./ha) of the same molecule?
Answer: 70%

Question: With `Cc1nn(-c2cc(NS(C)(=O)=O)c(Cl)cc2Cl)c(=O)n1C(F)F` [Sulfentrazone] as the molecule, how does the “Observed efficacy (%) of sulfentrazone (300 g a.i./ha)” value (Euphorbia heterophylla; Table 6, 14 DAA) read?
Answer: 25%

Question: What about the “Observed efficacy (%) of sulfentrazone (300 g a.i./ha)” value (Euphorbia heterophylla; Table 6, 21 DAA) of the same molecule?
Answer: 15%

Question: And the “Observed efficacy (%) of sulfentrazone (300 g a.i./ha)” value (Borreria verticillata; Table 5, 300 g a.i./ha)?
Answer: 30%

From patent publication US20260215431A1, “AN HERBICIDAL COMBINATION, COMPOSITION AND METHOD OF CONTROLLING WEEDS USING THE SAME” (priority 2023, published 2026)
